Experiments:
Type in all cases: cell-based, mouse
[1] = test system: myotubes; experiment: Calcium imaging (fura-2) of myotubes in the motor unit chip; conditions: n=8 fields
Description: (§1) Tri-cultures on 12.5 mm glass coverslips were briefly washed in HEPES Hanks' Buffer Solution (HHBS) (5.6 mM glucose, 20 mM Hepes, 3 mM NaHCO3, 0.3 mM Na2HPO4, 0.4 mM KH2PO4, 137 mM NaCl, 5.0 mM KCl, […], 4.1 mM MgSO4, 1.26 mM CaCl2, pH=7.4) and then the coverslip was incubated with fura-2 AM in 0.04% pluronic acid dissolved in HHBS to a final concentration of 20 μM for 30 mins at 37° C. After loading indicator, coverslips were washed in fresh HBSS for 10 mins at 37° C. and then transferred to an imaging chamber for microscopy experiments. Fura-2 imaging was performed on an Olympus IX71 microscope using a 20× objective lens. […] Intracellular Ca^2+ concentration ([Ca^2+]i) was monitored by sequential excitation (1 Hz) of fura-2 at 340 and 380 nm. […]
(§2) Images were processed using MetaFluor Analyst to draw regions of interest (ROIs), subtract background, and generate 340/380 ratios. […] Criterion “1” was empirically determined to exclude cells with poor signal to noise ratio. […]
(§3) Data were analyzed using the Student's t test. […] For statistical analyses of calcium image, MN and myotube data were assessed for normality using the D′Agostino-Pearson normality test. […] Percent responders was calculated using number of responders/total MNs or myotubes in the field.

[2] = test system: MNs; experiment: Calcium imaging (fura-2) of motor neurons in the motor unit chip; conditions: n=8 fields
Description: as §1, §2, §3

[3] = test system: Schwann cells; experiment: Calcium imaging (fura-2) of Schwann cells in the tri-culture; conditions: 50 mM extracellular K^+ or 10 μM ACh
Description: After loading indicator, coverslips were washed in fresh HBSS for 10 mins at 37° C. and then transferred to an imaging chamber for microscopy experiments. Fura-2 imaging was performed on an Olympus IX71 microscope using a 20× objective lens. Excitation wavelength was selected with a galvanometer-driven monochromator (8 nm slit width) coupled to a 75 W xenon arc lamp (Optoscan; Cairn Research). […] A single image was acquired at 610 nm to identify mApple expressing MNs in the field. Fluorescent images were captured using a cooled charge-coupled device camera (Cascade 512B; Roper Scientific) and Metafluor acquisition software (Molecular Devices). All fura-2 experiments were performed in HBSS buffer at room temperature. To depolarize MNs the extracellular K^+ concentration was increased to 50 mM with K^+ exchanged reciprocally for Na+in HHBS. For myotube stimulation 10 μM ACh was applied by bath perfusion. A 60 s baseline in HHBS was acquired before stimulation of each coverslip. High K^+ was applied for 30 s and ACh for 1 min. After stimulus application, a washout of 60 s was performed. Background images were acquired after each experiment; the coverslip was wiped clean, then 20 frames were acquired using the same parameters as above. Images were processed using MetaFluor Analyst to draw regions of interest (ROIs), subtract background, and generate 340/380 ratios. […]

Row | SMILES | myotubes responded to ACh stimulation (percent responders) ([1]; 10 μM ACh for 60 s, 24/27 cells) [%] | ACh-evoked peak 340/380 ratio ([Ca^2+]i) ([1]; 10 μM ACh, basal 340/380 ratio 0.68±0.12, mean ±SD) | MNs responded to 50 mM K^+ stimulation (percent responders) ([2]; 50 mM K^+ for 30 s, 43/62 cells) [%] | depolarization-evoked peak 340/380 ratio ([Ca^2+]i) ([2]; 50 mM K^+, basal 340/380 ratio 0.62±0.06, mean ±SD) | changes in [Ca^2+]i in Schwann cells [3]
1 | CC(=O)OCC[N+](C)(C)C [ACh, acetylcholine] | 89 | 3.62±2.73 | – | – | –
2 | [Cl-].[K+] [K^+] | – | – | 70 | 1.83±1.41 | did not show any changes in [Ca^2+]i
